The results in this text go back to ChEMBL document CHEMBL2062409, “Conformationally-restricted cyclic sulfones as potent and selective mTOR kinase inhibitors” (Bioorg Med Chem Lett, 2012).

The term Ki denotes a dissociation constant, usually derived from enzyme kinetics or from competition with a known ligand. Usually IC50 stands for the concentration that gives 50% inhibition. In general, half-life refers to how long it takes for the measured level to halve. A low value points to fast loss. By inhibition is commonly meant how much of the control response was suppressed. Higher therefore signals a strong effect. The bioavailability is dose-corrected exposure relative to a reference, in per cent. High values mean much systemic uptake, low ones little systemic uptake. Usually clearance stands for a measure of how efficiently the substance is removed, as volume per time. Read a high clearance as efficient removal.

Bounds are passed on as bounds.

Data set [1] has as its target T1, Phosphatidylinositol 4,5-bisphosphate 3-kinase catalytic subunit alpha isoform (Homo sapiens, UniProt P42336). Kind of data set: Inhibition of PI3Kalpha.
Data set [2] is described as follows: Clearance in human hepatocytes assessed per million cells. Format: ADME, cell-based, Hepatocyte. To be noted: read-out: CLH.
A further data set is filed under the species Homo sapiens. Nature of the data set: Selectivity ratio of Ki for PI3Kalpha to Ki for mTOR.
For data set [3], the target named is T2, Serine/threonine-protein kinase mTOR (Homo sapiens, UniProt P42345). Nature of the data set: Inhibition of mTOR.
Data set [4] in a line: Clearance in human liver microsomes assessed per mg of protein. Format: ADME, Microsome. The following applies: read-out: CLH. (Liver microsomes are a subcellular fraction often used to study metabolism.)
Data set [5] has as its target T2, Serine/threonine-protein kinase mTOR. Nature of the data set: Inhibition of mTOR-mediated ribosomal protein S6 kinase phosphorylation by cell based assay.
The nature of data set [6]: Half life in rat. The data set is classed as ADME, organism-based. To be noted: in vivo.
For a further data set, the target named is T3, CYP1A2 (Homo sapiens, UniProt P05177).
T3 sequence (P05177 whole entry): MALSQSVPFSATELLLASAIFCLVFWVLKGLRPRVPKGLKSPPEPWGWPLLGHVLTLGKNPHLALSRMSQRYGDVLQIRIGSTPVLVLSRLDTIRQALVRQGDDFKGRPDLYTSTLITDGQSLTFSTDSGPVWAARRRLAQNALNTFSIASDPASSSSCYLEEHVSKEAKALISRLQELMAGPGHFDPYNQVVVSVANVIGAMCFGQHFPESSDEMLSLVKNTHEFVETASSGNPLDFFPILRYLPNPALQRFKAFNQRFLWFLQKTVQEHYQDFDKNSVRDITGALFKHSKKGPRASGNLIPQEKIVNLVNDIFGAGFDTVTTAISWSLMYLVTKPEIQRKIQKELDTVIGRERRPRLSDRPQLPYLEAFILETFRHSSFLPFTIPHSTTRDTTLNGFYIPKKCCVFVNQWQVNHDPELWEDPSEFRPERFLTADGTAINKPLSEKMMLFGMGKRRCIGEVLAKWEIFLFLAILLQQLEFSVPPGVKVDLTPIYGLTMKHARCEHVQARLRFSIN
Nature of the data set: Inhibition of CYP1A2 at 3 uM. Format: ADME.

Data set [7] is described as follows: Oral bioavailability in rat. The data set is classed as ADME, organism-based. To be noted: in vivo.
The target in data set [8] is T2, Serine/threonine-protein kinase mTOR. Nature of the data set: Inhibition of mTOR-mediated AKT phosphorylation at Ser473 by cell based assay.
The next data set relates to Salmonella typhimurium. Nature of the data set: Genotoxicity in Salmonella typhimurium. The data set is classed as toxicity, organism-based. To be noted: salmonella enterica subsp. enterica serovar typhimurium.
Data set [9] is described as follows: Clearance in rat. Format: ADME, organism-based. The following applies: in vivo.
The target in another data set is CYP2D6 (Homo sapiens, UniProt P10635). Kind of data set: Inhibition of CYP2D6 at 3 uM. Format: ADME.
A short description of data set [10]: Drug excretion in rat. The following applies: in vivo, read-out: Drug excretion. The data set is classed as ADME, organism-based.
For the next data set, the target named is CYP2C9 (Homo sapiens, UniProt P11712). Kind of data set: Inhibition of CYP2C9 at 3 uM. Format: ADME.
The next data set concerns the target CYP3A4 (Homo sapiens, UniProt P08684). Kind of data set: Inhibition of CYP3A4 at 3 uM. Format: ADME.
For data set [11], the target named is T1, Phosphatidylinositol 4,5-bisphosphate 3-kinase catalytic subunit alpha isoform. Kind of data set: Inhibition of PI3Kalpha at 100 nM.

T1 sequence (P42336 whole entry, canonical isoform): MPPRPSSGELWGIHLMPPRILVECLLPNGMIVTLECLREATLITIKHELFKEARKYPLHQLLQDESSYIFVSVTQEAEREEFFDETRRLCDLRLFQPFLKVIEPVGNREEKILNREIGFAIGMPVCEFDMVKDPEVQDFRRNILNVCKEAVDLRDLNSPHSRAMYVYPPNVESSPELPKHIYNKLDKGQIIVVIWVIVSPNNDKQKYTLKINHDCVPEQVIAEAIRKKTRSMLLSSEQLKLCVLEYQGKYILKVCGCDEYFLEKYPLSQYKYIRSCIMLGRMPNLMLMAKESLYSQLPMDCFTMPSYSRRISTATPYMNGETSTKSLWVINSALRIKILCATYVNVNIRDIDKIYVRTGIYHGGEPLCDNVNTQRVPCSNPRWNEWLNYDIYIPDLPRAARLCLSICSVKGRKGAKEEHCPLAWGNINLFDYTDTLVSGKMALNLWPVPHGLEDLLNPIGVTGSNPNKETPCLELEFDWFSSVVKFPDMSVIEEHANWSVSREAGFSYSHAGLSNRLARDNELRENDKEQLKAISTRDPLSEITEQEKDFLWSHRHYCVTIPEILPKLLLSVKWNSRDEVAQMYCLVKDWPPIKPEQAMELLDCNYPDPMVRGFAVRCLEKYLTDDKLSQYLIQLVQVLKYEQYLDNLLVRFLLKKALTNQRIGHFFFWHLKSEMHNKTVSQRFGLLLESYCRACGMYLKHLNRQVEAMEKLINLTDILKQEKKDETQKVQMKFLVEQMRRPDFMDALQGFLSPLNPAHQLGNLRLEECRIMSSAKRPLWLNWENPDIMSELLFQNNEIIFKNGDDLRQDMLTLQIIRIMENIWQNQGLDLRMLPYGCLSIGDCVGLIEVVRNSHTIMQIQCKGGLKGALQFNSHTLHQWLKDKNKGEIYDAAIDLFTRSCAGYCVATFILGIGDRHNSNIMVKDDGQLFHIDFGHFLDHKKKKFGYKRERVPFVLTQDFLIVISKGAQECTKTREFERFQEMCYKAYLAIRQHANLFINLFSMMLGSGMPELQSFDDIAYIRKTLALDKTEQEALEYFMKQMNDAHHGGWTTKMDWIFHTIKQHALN
CYP2D6, sequence (P10635 whole entry): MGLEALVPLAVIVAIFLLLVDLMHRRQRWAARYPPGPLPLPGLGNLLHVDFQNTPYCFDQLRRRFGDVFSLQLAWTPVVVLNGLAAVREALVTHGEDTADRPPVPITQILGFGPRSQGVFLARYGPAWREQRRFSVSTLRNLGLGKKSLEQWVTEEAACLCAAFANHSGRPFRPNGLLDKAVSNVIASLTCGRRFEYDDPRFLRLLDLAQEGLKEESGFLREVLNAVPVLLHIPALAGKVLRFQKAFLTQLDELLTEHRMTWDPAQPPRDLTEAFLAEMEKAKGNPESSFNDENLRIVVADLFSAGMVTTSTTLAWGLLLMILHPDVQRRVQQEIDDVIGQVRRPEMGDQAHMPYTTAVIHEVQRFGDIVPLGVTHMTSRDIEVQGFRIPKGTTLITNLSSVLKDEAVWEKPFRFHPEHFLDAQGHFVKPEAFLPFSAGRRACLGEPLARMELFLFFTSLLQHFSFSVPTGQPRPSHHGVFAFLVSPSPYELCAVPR
CYP2C9, sequence (P11712 whole entry): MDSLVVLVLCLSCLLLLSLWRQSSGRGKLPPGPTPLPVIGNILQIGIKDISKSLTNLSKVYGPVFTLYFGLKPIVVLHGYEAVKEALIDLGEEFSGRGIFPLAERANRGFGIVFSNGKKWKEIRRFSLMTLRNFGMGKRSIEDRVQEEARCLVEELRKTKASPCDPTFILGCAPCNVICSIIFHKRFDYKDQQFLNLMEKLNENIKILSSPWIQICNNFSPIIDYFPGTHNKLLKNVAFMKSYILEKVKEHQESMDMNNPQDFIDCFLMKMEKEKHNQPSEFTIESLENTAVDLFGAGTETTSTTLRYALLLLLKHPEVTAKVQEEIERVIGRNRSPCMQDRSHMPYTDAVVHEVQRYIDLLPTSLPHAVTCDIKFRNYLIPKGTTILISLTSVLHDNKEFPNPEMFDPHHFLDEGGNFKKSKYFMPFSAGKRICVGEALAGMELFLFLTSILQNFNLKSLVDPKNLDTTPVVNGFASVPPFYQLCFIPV
CYP3A4, sequence (P08684 whole entry, canonical isoform): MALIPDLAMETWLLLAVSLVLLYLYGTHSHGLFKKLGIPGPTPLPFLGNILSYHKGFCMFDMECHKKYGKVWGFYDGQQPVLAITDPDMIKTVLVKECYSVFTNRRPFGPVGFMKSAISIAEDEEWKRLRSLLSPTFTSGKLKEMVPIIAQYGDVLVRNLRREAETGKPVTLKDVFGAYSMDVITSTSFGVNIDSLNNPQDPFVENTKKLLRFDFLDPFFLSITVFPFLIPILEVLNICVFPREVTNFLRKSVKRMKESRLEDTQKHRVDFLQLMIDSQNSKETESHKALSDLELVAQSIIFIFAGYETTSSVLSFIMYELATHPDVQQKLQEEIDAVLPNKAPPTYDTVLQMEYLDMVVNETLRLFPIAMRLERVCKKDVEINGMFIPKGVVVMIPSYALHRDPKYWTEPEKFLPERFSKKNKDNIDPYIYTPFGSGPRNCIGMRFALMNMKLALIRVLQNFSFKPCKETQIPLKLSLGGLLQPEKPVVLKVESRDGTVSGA

As to `CCNC(=O)Nc1ccc(-c2nc3c(c(N4CCOCC4)n2)CS(=O)(=O)C3)cc1`, the results for the Ki in [1] and in [3] were 514 nM and 25 nM, respectively. Also, the hepatocyte CLint in [2] was below 2 µL/min/1e6 cells. For the same compound, the Ratio Ki in the data set filed under Homo sapiens amounted to 20. The microsomal CLint in [4] is below 8 µL/min/mg.

`CCNC(=O)Nc1ccc(-c2nc3c(c(N4CCOC[C@@H]4C)n2)CS(=O)(=O)CC3)cc1`: the IC50 in data set [5] is 6 nM; in [8] it was 48 nM. Besides, in data set [6], the half-life is 1.05 h. The inhibition at 3 µM against CYP1A2, against CYP2D6, against CYP2C9 and against CYP3A4 was at most 25% throughout. Further, the bioavailability in data set [7] was determined as 30%. Also, the Ki in [1] is above 4550 nM; in [3] it was 8 nM. For the same compound, in the data set with Salmonella typhimurium, the Activity entry is “Non-toxic”. Also, the clearance in [9] was found to be 66.2 mL/min/kg. Moreover, the dose excreted in [10] was 5.5%. Further, the hepatocyte CLint in data set [2] was below 2 µL/min/1e6 cells. For the same compound, the Ratio Ki in the data set filed under Homo sapiens is above 500. Moreover, the microsomal CLint in [4] came out at 8.7 µL/min/mg.

Take `CCNC(=O)Nc1ccc(-c2nc3c(c(N4CCOCC4)n2)CS(=O)(=O)CC3)cc1`: the results for the inhibition constant Ki in data set [1] and in data set [3] were above 4550 nM and 50 nM, respectively. In addition, the hepatocyte CLint in data set [2] was below 2 µL/min/1e6 cells. Moreover, the microsomal CLint in data set [4] is below 8 µL/min/mg.

As for `CCNC(=O)Nc1ccc(-c2nc3c(c(N4CCOC[C@@H]4C)n2)S(=O)(=O)CCC3)cc1`, the inhibition constant Ki in data set [1] is above 4550 nM; in [3], 50 nM. In addition, in [2], the hepatocyte CLint was 28 µL/min/1e6 cells. Besides, the microsomal CLint in data set [4] came to 58 µL/min/mg.

For `CCNC(=O)Nc1ccc(-c2nc3c(c(N4C[C@@H]5C[C@H]4CO5)n2)CS(=O)(=O)C3)cc1`, the inhibition in data set [11] is 3%. The half-inhibitory concentration (IC50) in [8] was found to be 1290 nM. The compound further yielded a Ki in data set [3] of 62 nM.

`CCNC(=O)Nc1ccc(-c2nc3c(c(N4CCOC[C@H]4C)n2)S(=O)(=O)CC3)cc1`: the inhibition in data set [11] was determined as 7%. Further, the hepatocyte CLint in data set [2] came out at 11 µL/min/1e6 cells. This compound also yielded a Ki in data set [3] of 120 nM. In addition, the microsomal CLint in data set [4] was found to be 25 µL/min/mg.

In data set [11], `CCNC(=O)Nc1ccc(-c2nc3c(c(N4C[C@H]5CC[C@@H](C4)O5)n2)CS(=O)(=O)C3)cc1` had an inhibition of 18%. In data set [8], this compound gave an IC50 of 84 nM. This compound also registered a Ki in data set [3] of 7 nM.

Take `CCNC(=O)Nc1ccc(-c2nc3c(c(N4CCOC[C@H]4C)n2)CS(=O)(=O)CC3)cc1`: the Ki in data set [1] is above 4550 nM; in [3], 52 nM.

Take `CCNC(=O)Nc1ccc(-c2nc3c(c(N4C[C@H]5CC[C@@H](C4)O5)n2)CS(=O)(=O)CC3)cc1`: the figures for the Ki in data set [1] and in data set [3] were 3000 nM and 5 nM, respectively. The compound further had an IC50 in data set [8] of 55 nM.
